Reference: US20120258053A1, “ORAL CARE COMPOSITIONS FOR USE WITH AN ORAL LIGHT DEVICE” (COLGATE-PALMOLIVE COMPANY, priority 2009, published 2012)
“Also recorded” adds a separate entry of the source.

Key:
[1] = tested on: biofilm of A. naeslundi; assay: Light-triggered reduction of bacterial biofilm (24 h old); format: cell-based; details: for biofilm reduction compared to light alone: 0.1% concentration, in the presence of light; for Percentage Reduction in Biofilm, Light plus photosensitizer: 0.1% dye incubated 2 min prior to irradiation, wavelength given with each dye, 24 J/cm^2 (200 mW/cm^2 @ 2 min)
Experimental: Bacterial biofilms (24 h old) were treated with the photosensitizers or photo-triggered actives described in the tables below at a concentration less than their minimum inhibitory concentration (MIC). The actives were either pre-incubated before light exposure for 2 s to 15 min, typically less than 2 min, or administered at the same time the biofilm was exposed to the light. The bacteria were irradiated at a set wavelength for 2 s to 15 min (typically less than 2 min) at an energy dose between 1-450 J/cm^2. Optical power densities typically ranged from 1-500 mW/cm^2. Light was either pulsed or provided in one continuous light exposure. Pulsed light treatments were preferred for high optical energy treatments.
On a biofilm of A. naeslundi, the impact of four “photosensitizers” (0.1% concentration) in the presence of light was evaluated. MIC typically ranged from 0.0001% (w/v) to 1% (w/v). The percent biofilm reduction is tabulated below.

[2] = tested on: TNFα of HEPM cells stimulated by IL-1β; assay: Cytokine concentration in IL-1β stimulated cell culture after light irradiation with dye; format: cell-based, human; details: 9 mW/cm^2, 1.1 J/cm^2
Experimental: Cells used in this example include human embryonic palatal mesenchymal (HEPM) cells and oral keratinocytes OBA9 cells. The embodiments also can be used with other cells such as human gingival fibroblasts (HGF). Cells were seeded in 24-well plates and cultured until reaching a confluence above 80%. The confluent-stage cells were treated with stimulants such as IL-1β followed by light irradiation alone, or light irradiation combined with GRAS photosensitizing dye. The cells were either pre-incubated in photosensitizing dye before light exposure, or administered at the same time of light exposure. The cells were incubated in photosensitizing dyes for varied amounts of time, the concentration of photosensitizing dyes were varied, and the cell were irradiated with light for varied amounts of time per exposure, as well as irradiation either one time or multiple times, as described below. After irradiation, the cells were incubated at 37° C. The cell culture media was collected after a certain amount of time for cytokine analysis.
The results tabulated below reveal that visible light (various wavelength, 380-700 nm) alone and photosensitizing dye irradiated with visible light (various wavelength, 380-700 nm) have anti-inflammation effect. […]

Compound | biofilm reduction compared to light alone [1] | Percentage Reduction in Biofilm, Light plus photosensitizer [1] [%] | effect on TNFα concentration ([2]; Fast Green 1000 ppm combined with light at 625 nm for 2 minutes) | Cytokine Conc. TNF-α, Il-1β + light + Dye ([2]; HEPM cells, IL-1β stimulated, Fast Green 1000 ppm, 625 nm, 2 minutes, Il-1β alone 9, Il-1β + light 5.8) [pg/mL]
COc1cc(S(=O)(=O)[O-])c(C)cc1N=Nc1c(O)ccc2cc(S(=O)(=O)[O-])ccc12.[Na+].[Na+] [Allura Red, Allura Red AC] | increased biofilm reduction compared to light alone | 55 |  | 
O=S(=O)([O-])c1ccc(/N=N/c2cc(S(=O)(=O)[O-])c3ccccc3c2O)c2ccccc12.[Na+].[Na+] [Chromotrope, Chromotrope FB] |  | 18 |  | 
CCN(Cc1cccc(S(=O)(=O)[O-])c1)c1ccc(C(=C2C=CC(=[N+](CC)Cc3cccc(S(=O)(=O)[O-])c3)C=C2)c2ccccc2S(=O)(=O)[O-])cc1.[Na+].[Na+] [Erioglaucine, Erioglaucine disodium salt] |  | 41 |  | 
CCN(Cc1cccc(S(=O)(=O)[O-])c1)c1ccc(C(=C2C=CC(=[N+](CC)Cc3cccc(S(=O)(=O)[O-])c3)C=C2)c2ccc(O)cc2S(=O)(=O)[O-])cc1.[Na+].[Na+] [Fast Green, Fast Green FCF] | increased biofilm reduction compared to light alone | 43 | can decrease pro-inflammation cytokine TNFα concentration; also recorded: can reduce concentration of TNFα | 3.4
O=C1/C(=C2\Nc3ccc(S(=O)(=O)[O-])cc3C2=O)Nc2ccc(S(=O)(=O)[O-])cc21.[Na+].[Na+] [Indigo Carmine] |  | 30 |  | 
CN(C)c1ccc(C(=C2C=CC(=[N+](C)C)C=C2)c2c(O)c(S(=O)(=O)[O-])cc3cc(S(=O)(=O)[O-])ccc23)cc1.[Na+] [Lissamine Green B] | increased biofilm reduction compared to light alone | 43 |  | 
Cc1cc2nc3c(=O)[nH]c(=O)nc-3n(C[C@H](O)[C@H](O)[C@H](O)CO)c2cc1C [Riboflavin] | increased biofilm reduction compared to light alone | 56 |  | 
O=C([O-])C1=NN(c2ccc(S(=O)(=O)[O-])cc2)C(=O)C1N=Nc1ccc(S(=O)(=O)[O-])cc1.[Na+].[Na+].[Na+] (stereo not shown) [Tartrazine] | increased biofilm reduction compared to light alone | 72 |  | 
Chlorophyllin sodium copper salt |  | 21 |  | 
